Common to all, as to conditions: biochemical activity; 10 μM ATP
In one assay the target is T1, Human Axl (Homo sapiens, UniProt P30530, Q764R).
T1 construct: Human Axl (residues H473-A894 with Q764R, 161 nM); purchased Eurofins Pharma Discovery Services UK Limited (KinaseProfiler service)
T1 sequence (P30530 473-894 Q764R): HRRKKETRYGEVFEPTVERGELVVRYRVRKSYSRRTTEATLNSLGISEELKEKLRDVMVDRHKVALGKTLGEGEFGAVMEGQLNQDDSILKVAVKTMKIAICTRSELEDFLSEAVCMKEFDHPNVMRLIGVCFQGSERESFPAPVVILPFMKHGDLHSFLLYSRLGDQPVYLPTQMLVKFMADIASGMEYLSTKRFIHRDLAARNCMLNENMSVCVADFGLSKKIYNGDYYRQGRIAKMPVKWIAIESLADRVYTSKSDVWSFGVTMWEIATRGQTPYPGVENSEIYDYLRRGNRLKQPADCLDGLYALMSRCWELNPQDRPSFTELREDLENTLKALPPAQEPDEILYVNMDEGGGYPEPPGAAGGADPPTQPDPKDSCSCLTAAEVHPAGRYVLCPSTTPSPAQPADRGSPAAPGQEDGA
The assay is described as follows: Human AXL kinase assay (33P-phosphoryl transfer radiometric, KinaseProfiler). On the procedure: (§1) Kinase activity and compound inhibition were investigated using the ^33P-Phosphoryl transfer radiometric kinase assay, performed using the KinaseProfiler™ service of Eurofins Pharma Discovery Services UK Limited. Dose-response experiments were performed using nine compound concentrations in a 96-well microtiter plate. For each assay, all compounds were prepared to a 50× final assay concentration (50 μM) in 100% DMSO, then diluted in a half-log series, with the final top concentration at 1 μM. This working stock of the compound was added to the assay well as the first component in the reaction, followed by the remaining components as detailed in the following assay protocols below. The positive control wells (100% kinase activity) contain all components of the reaction including 2% DMSO (control for solvent effects), except the compound of interest. Blank wells contain all components of the reaction, with the reference inhibitor, staurosporine. This reference compound was used to abolish kinase activity and generated the 0% kinase activity base-line. IC50 values were calculated by nonlinear regression analysis using the sigmoidal dose-response (variable slope) curve fit on XLFit version 5.3 (ID Business Solutions).
(§2) Human Axl (residues H473-A894 with Q764R, 161 nM) was incubated with 8 mM MOPS pH 7.0, 0.2 mM EDTA, 250 μM KKSRGDYMTMQIG, 10 mM magnesium acetate, and 10 μM [y-^33P-ATP]. The reaction was initiated by the addition of the Mg/ATP mix. After incubation for 40 minutes at room temperature, the reaction was stopped by the addition of phosphoric acid to a concentration of 0.5%. A reaction aliquot of 10 μL was then spotted onto a P30 filtermat and washed four times for 4 minutes in 0.425% phosphoric acid and once in methanol prior to drying and scintillation counting. Incorporated ^33P was measured using the Wallac Microbeta scintillation counter (Perkin Elmer).

Another assay has as its target T2, Human Mer (Homo sapiens, UniProt Q12866).
T2 construct: Human Mer (residues R557-E882 with H628Q and R794A, 0.7 nM); purchased Eurofins Pharma Discovery Services UK Limited (KinaseProfiler service)
T2 sequence (Q12866 557-882 limits assumed): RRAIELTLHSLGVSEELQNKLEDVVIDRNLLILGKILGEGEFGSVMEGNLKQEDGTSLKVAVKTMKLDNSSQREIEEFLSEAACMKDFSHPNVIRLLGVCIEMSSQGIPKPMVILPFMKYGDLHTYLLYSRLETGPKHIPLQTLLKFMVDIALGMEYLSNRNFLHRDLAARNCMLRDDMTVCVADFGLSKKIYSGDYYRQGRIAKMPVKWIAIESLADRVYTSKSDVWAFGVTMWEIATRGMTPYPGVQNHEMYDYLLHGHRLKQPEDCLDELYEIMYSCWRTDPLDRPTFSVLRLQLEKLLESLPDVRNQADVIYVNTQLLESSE
The assay is described as follows: Human Mer kinase assay (33P-phosphoryl transfer radiometric, KinaseProfiler). On the procedure: as §1
as §2, with “Mer” for “Axl”, “R557-E882” for “H473-A894”, “H628Q and R794A, 0.7” for “Q764R, 161”, “EDTA, 30 mM NaCl,” for “EDTA,”, “GGMEDIYFEFMGGKKK,” for “KKSRGDYMTMQIG,”, “acetate” for “acetate,”

The target in the next assay is KDR (Homo sapiens, UniProt P35968). The assay is described as follows: Human KDR kinase assay (33P-phosphoryl transfer radiometric, KinaseProfiler). Further details: Human KDR (residues K790-V1356, 55 nM); purchased Eurofins Pharma Discovery Services UK Limited (KinaseProfiler service). On the procedure: as §1
KDR, sequence (P35968 790-1356): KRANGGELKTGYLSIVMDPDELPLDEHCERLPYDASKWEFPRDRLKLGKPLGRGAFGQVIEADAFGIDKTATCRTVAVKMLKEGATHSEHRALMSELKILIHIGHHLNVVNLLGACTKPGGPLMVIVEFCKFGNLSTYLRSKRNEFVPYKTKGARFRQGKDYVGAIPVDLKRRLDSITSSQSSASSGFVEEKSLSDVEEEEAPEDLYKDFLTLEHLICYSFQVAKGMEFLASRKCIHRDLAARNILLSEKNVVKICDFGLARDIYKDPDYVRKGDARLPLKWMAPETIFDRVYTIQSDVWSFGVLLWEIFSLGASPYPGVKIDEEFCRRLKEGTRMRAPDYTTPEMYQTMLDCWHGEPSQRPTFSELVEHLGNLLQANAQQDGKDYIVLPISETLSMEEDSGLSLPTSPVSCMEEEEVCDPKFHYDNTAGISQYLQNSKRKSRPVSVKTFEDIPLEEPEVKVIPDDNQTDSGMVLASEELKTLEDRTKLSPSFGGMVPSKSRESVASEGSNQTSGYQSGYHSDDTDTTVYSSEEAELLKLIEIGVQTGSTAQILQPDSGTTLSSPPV
as §2, with “KDR” for “Axl”, “K790-V1356, 55” for “H473-A894 with Q764R, 161”, “0.33 mg/mL myelin basic protein,” for “250 μM KKSRGDYMTMQIG,”, “[γ-^33P-ATP].” for “[y-^33P-ATP].”

The structures appear in SMILES notation.

As for `O=C(Nc1ccc(F)cc1)C1(C(=O)Nc2ccc(Oc3ccnc4cc(-c5cnn(CCO)c5)ccc34)cc2)CC1` [Compound 18, 1-N′-(4-Fluorophenyl)-1-N-[4-[7-[1-(2-hydroxyethyl)pyrazol-4-yl]quinolin-4-yl]oxyphenyl]cyclopropane-1,1-dicarboxamide], the concentration for half-maximal inhibition (IC50) against Human Axl, on Human Mer and on KDR was no more than 0.01 µM throughout.
`COCCn1cc(-c2ccc3c(Oc4ccc(NC(=O)C5(C(=O)Nc6ccc(F)cc6)CC5)cc4)ccnc3c2)cn1` [Compound 10, 1-N′-(4-Fluorophenyl)-1-N-[4-[7-[1-(2-methoxyethyl)pyrazol-4-yl]quinolin-4-yl]oxyphenyl]cyclopropane-1,1-dicarboxamide]: the half-maximal inhibitory concentration (IC50) against Human Axl is no more than 0.01 µM; against Human Mer, no more than 0.01 µM; on KDR, 0.01 to 0.1 µM.
Take `O=C(Nc1ccc(F)cc1)C1(C(=O)Nc2ccc(Oc3ccnc4cc(-c5cnn(CC(F)F)c5)ccc34)cc2)CC1` [Compound 15, 1-N-[4-[7-[1-(2,2-Difluoroethyl)pyrazol-4-yl]quinolin-4-yl]oxyphenyl]-1-N′-(4-fluorophenyl)cyclopropane-1,1-dicarboxamide]: the IC50 against Human Axl is no more than 0.01 µM; at Human Mer, no more than 0.01 µM; against KDR, 0.01 to 0.1 µM.
For the molecule `O=C(Nc1ccc(F)cc1)C1(C(=O)Nc2ccc(Oc3ccnc4cc(-c5cnc[nH]5)ccc34)cc2)CC1` [Compound 72, 1-N′-(4-Fluorophenyl)-1-N-[4-[7-(1H-imidazol-5-yl)quinolin-4-yl]oxyphenyl]cyclopropane-1,1-dicarboxamide], the half-maximal inhibitory concentration (IC50) at Human Axl was no more than 0.01 µM; at Human Mer it was no more than 0.01 µM; against KDR it was 0.01 to 0.1 µM.
As to `Cn1ncc(-c2ccc3c(Oc4ccc(NC(=O)C5(C(=O)Nc6ccc(F)cc6)CC5)cc4)ccnc3c2)n1` [Compound 86, 1-N′-(4-Fluorophenyl)-1-N-[4-[7-(2-methyltriazol-4-yl)quinolin-4-yl]oxyphenyl]cyclopropane-1,1-dicarboxamide], the half-inhibitory concentration (IC50) on Human Axl was no more than 0.01 µM; against Human Mer, no more than 0.01 µM; at KDR, 0.01 to 0.1 µM.
For the molecule `O=C(Nc1ccc(F)cc1)C1(C(=O)Nc2ccc(Oc3ccnc4cc(-c5ccccn5)ccc34)cc2)CC1` [Compound 85, 1-N′-(4-Fluorophenyl)-1-N-[4-(7-pyridin-2-ylquinolin-4-yl)oxyphenyl]cyclopropane-1,1-dicarboxamide], the half-maximal inhibitory concentration (IC50) against Human Axl is 0.01 to 0.1 µM; on Human Mer it was no more than 0.01 µM; against KDR, 0.01 to 0.1 µM.
Turning to `CC(=O)N1CCC(n2cc(-c3ccc4c(Oc5ccc(NC(=O)C6(C(=O)Nc7ccc(F)cc7)CC6)cc5)ccnc4c3)cn2)CC1` [Compound 62, 1-N-[4-[7-[1-(1-Acetylpiperidin-4-yl)pyrazol-4-yl]quinolin-4-yl]oxyphenyl]-1-N′-(4-fluorophenyl)cyclopropane-1,1-dicarboxamide], the IC50 against Human Axl was no more than 0.01 µM; against Human Mer it was no more than 0.01 µM; against KDR it was 0.01 to 0.1 µM.
Consider `Cn1cc(-c2ccc3c(Oc4ccc(NC(=O)C5(C(=O)Nc6ccc(F)cc6)CC5)cc4)ccnc3c2)cn1` [Compound 11, 1-N′-(4-Fluorophenyl)-1-N-[4-[7-(1-methylpyrazol-4-yl)quinolin-4-yl]oxyphenyl]cyclopropane-1,1-dicarboxamide], for which the IC50 was no more than 0.01 µM at Human Axl, no more than 0.01 µM against Human Mer and 0.01 to 0.1 µM at KDR.
Take `CNC(=O)c1cc2c(Oc3ccc(NC(=O)C4(C(=O)Nc5ccc(F)cc5)CC4)cc3)ccnc2cc1-c1cnn(C)c1` [Compound 77, 1-N′-(4-Fluorophenyl)-1-N-[4-[6-(methylcarbamoyl)-7-(1-methylpyrazol-4-yl)quinolin-4-yl]oxyphenyl]cyclopropane-1,1-dicarboxamide]: the values for the IC50 at Human Axl, at Human Mer and at KDR were 0.01 to 0.1 µM, no more than 0.01 µM and 0.01 to 0.1 µM, respectively.
For the molecule `Cn1cc(-c2ccc3c(Oc4ccc(NC(=O)C5(C(=O)N6CCc7cc(F)ccc76)CC5)cc4)ccnc3c2)cn1` [Compound 81, 1-(5-Fluoro-2,3-dihydroindole-1-carbonyl)-N-[4-[7-(1-methylpyrazol-4-yl)quinolin-4-yl]oxyphenyl]cyclopropane-1-carboxamide], the results for the IC50 on Human Axl, at Human Mer and at KDR were no more than 0.01 µM, 0.01 to 0.1 µM and 0.01 to 0.1 µM, respectively.
As to `CCn1cc(-c2ccc3c(Oc4ccc(NC(=O)C5(C(=O)Nc6ccc(F)cc6)CC5)cc4)ccnc3c2)cn1` [Compound 20, 1-N-[4-[7-(1-Ethylpyrazol-4-yl)quinolin-4-yl]oxyphenyl]-1-N′-(4-fluorophenyl)cyclopropane-1,1-dicarboxamide], the values for the concentration for half-maximal inhibition (IC50) on Human Axl, at Human Mer and against KDR were no more than 0.01 µM, no more than 0.01 µM and 0.01 to 0.1 µM, respectively.
As to `Cc1cc(F)cc(C)c1NC(=O)C1(C(=O)Nc2ccc(Oc3ccnc4cc(-c5cnn(C)c5)ccc34)cc2)CC1` [Compound 82, 1-N′-(4-Fluoro-2,6-dimethylphenyl)-1-N-[4-[7-(1-methylpyrazol-4-yl)quinolin-4-yl]oxyphenyl]cyclopropane-1,1-dicarboxamide], the IC50 against Human Axl was 0.01 to 0.1 µM; on Human Mer, no more than 0.01 µM; against KDR, 0.01 to 0.1 µM.
As to `O=C(Nc1ccc(F)cc1)C1(C(=O)Nc2ccc(Oc3ccnc4cc(-c5cnn(C6CCNCC6)c5)ccc34)cc2)CC1` [Compound 60, 1-N′-(4-Fluorophenyl)-1-N-[4-[7-(1-piperidin-4-ylpyrazol-4-yl)quinolin-4-yl]oxyphenyl]cyclopropane-1,1-dicarboxamide], the IC50 is no more than 0.01 µM on Human Axl, no more than 0.01 µM on Human Mer and 0.01 to 0.1 µM against KDR.
Turning to `CN1CCC(n2cc(-c3ccc4c(Oc5ccc(NC(=O)C6(C(=O)Nc7ccc(F)cc7)CC6)cc5)ccnc4c3)cn2)CC1` [Compound 61, 1-N′-(4-Fluorophenyl)-1-N-[4-[7-[1-(1-methylpiperidin-4-yl)pyrazol-4-yl]quinolin-4-yl]oxyphenyl]cyclopropane-1,1-dicarboxamide], the IC50 against Human Axl is no more than 0.01 µM; against Human Mer, no more than 0.01 µM; on KDR, 0.01 to 0.1 µM.
Take `O=C(Nc1ccc(F)cc1)C1(C(=O)Nc2ccc(Oc3ccnc4cc(-c5cnn(C6CC6)c5)ccc34)cc2)CC1` [Compound 22, 1-N-[4-[7-(1-Cyclopropylpyrazol-4-yl)quinolin-4-yl]oxyphenyl]-1-N′-(4-fluorophenyl)cyclopropane-1,1-dicarboxamide]: the half-maximal inhibitory concentration (IC50) was 0.01 to 0.1 µM on Human Axl, no more than 0.01 µM at Human Mer and 0.01 to 0.1 µM at KDR.

Broadly, the IC50 is the concentration at which inhibition is half-maximal.
